From US20040063662A1, “Selenophene anti-tumor agents” (priority 1996, published 2004)

How the values were obtained:
SR = assay: NCI human tumor cell panel: SR (Leukemia); assay type: cell-based
EKVX = assay: NCI human tumor cell panel: EKVX (Non-Small Cell Lung Cancer); assay type: cell-based
HOP-62 = assay: NCI human tumor cell panel: HOP-62 (Non-Small Cell Lung Cancer); assay type: cell-based
NCI-H23 = assay: NCI human tumor cell panel: NCI-H23 (Non-Small Cell Lung Cancer); assay type: cell-based
NCI-H322M = assay: cells; assay type: cell-based; settings: Homo sapiens, read-out: Log10 TGI (converted)
NCI-H460 = assay: NCI human tumor cell panel: NCI-H460 (Non-Small Cell Lung Cancer); assay type: cell-based
HCC-2998 = assay: NCI human tumor cell panel: HCC-2998 (Colon Cancer); assay type: cell-based
HCT-15 = assay: NCI human tumor cell panel: HCT-15 (Colon Cancer); assay type: cell-based
HT29 = assay: NCI human tumor cell panel: HT29 (Colon Cancer); assay type: cell-based
SF-295 = assay: NCI human tumor cell panel: SF-295 (CNS Cancer); assay type: cell-based
SF-539 = assay: NCI human tumor cell panel: SF-539 (CNS Cancer); assay type: cell-based
SNB-19 = assay: NCI human tumor cell panel: SNB-19 (CNS Cancer); assay type: cell-based
SNB-75 = assay: NCI human tumor cell panel: SNB-75 (CNS Cancer); assay type: cell-based
U251 = assay: NCI human tumor cell panel: U251 (CNS Cancer); assay type: cell-based
LOX IMVI = assay: NCI human tumor cell panel: LOX IMVI (Melanoma); assay type: cell-based
M14 = assay: NCI human tumor cell panel: M14 (Melanoma); assay type: cell-based
SK-MEL-2 = assay: NCI human tumor cell panel: SK-MEL-2 (Melanoma); assay type: cell-based
SK-MEL-28 = assay: NCI human tumor cell panel: SK-MEL-28 (Melanoma); assay type: cell-based
IGROV1 = assay: NCI human tumor cell panel: IGROV1 (Ovarian Cancer); assay type: cell-based
OVCAR-4 = assay: NCI human tumor cell panel: OVCAR-4 (Ovarian Cancer); assay type: cell-based; settings: OVCAR-4, read-out: Log10 GI50 (converted)
OVCAR-5 = assay: NCI human tumor cell panel: OVCAR-5 (Ovarian Cancer); assay type: cell-based; settings: OVCAR-5, read-out: Log10 GI50 (converted)
786-0 = assay: NCI human tumor cell panel: 786-0 (Renal Cancer); assay type: cell-based
TK-10 = assay: NCI human tumor cell panel: TK-10 (Renal Cancer); assay type: cell-based
UO-31 = assay: NCI human tumor cell panel: UO-31 (Renal Cancer); assay type: cell-based
PC-3 = assay: NCI human tumor cell panel: PC-3 (Prostate Cancer); assay type: cell-based
MCF7/ADR-RES = assay: NCI human tumor cell panel: MCF7/ADR-RES (Breast Cancer); assay type: cell-based
HS 578T = assay: NCI human tumor cell panel: HS 578T (Breast Cancer); assay type: cell-based; settings: read-out: Log10 TGI (converted)
MDA-MB-435 = assay: NCI human tumor cell panel: MDA-MB-435 (Breast Cancer); assay type: cell-based
MDA-N = assay: NCI human tumor cell panel: MDA-N (Breast Cancer); assay type: cell-based
BT-549 = assay: NCI human tumor cell panel: BT-549 (Breast Cancer); assay type: cell-based
HOP-92 = assay: NCI human tumor cell panel: HOP-92 (Non-Small Cell Lung Cancer)
NCI-H522 = assay: NCI human tumor cell panel: NCI-H522 (Non-Small Cell Lung Cancer)
[1] = read-out: Log10 GI50 (converted)
[2] = read-out: Log10 TGI (converted)

OCc1ccc(-c2ccc(-c3ccc(CO)[se]3)s2)s1 [compound 688830]
GI50 (SR; [1]): 24.5 µM
IC (TGI) (SR; [2]): 72.4 µM
GI50 (EKVX; [1]): 19.5 µM
IC (TGI) (EKVX; [2]): 66.1 µM
GI50 (HOP-62; HOP-62, read-out: Log10 GI50 (converted)): 0.0617 µM
IC (TGI) (HOP-62; HOP-62, read-out: Log10 TGI (converted)): 28.2 µM
GI50 (NCI-H23; NCI-H23, read-out: Log10 GI50 (converted)): 85.1 µM
IC (TGI) (NCI-H23; NCI-H23, read-out: Log10 TGI (converted)): > 100 µM
IC (TGI) (NCI-H322M): 20 µM
GI50 (NCI-H460; NCI-H460, read-out: Log10 GI50 (converted)): 0.017 µM
IC (TGI) (NCI-H460; NCI-H460, read-out: Log10 TGI (converted)): 0.646 µM
GI50 (HCC-2998; HCC-2998, read-out: Log10 GI50 (converted)): 0.0631 µM
IC (TGI) (HCC-2998; HCC-2998, read-out: Log10 TGI (converted)): 11.5 µM
GI50 (HCT-15; HCT-15, read-out: Log10 GI50 (converted)): 28.8 µM
IC (TGI) (HCT-15; HCT-15, read-out: Log10 TGI (converted)): > 100 µM
GI50 (HT29; HT-29, HT29, read-out: Log10 GI50 (converted)): 0.224 µM
IC (TGI) (HT29; HT-29, HT29, read-out: Log10 TGI (converted)): 43.7 µM
GI50 (SF-295; SF-295, read-out: Log10 GI50 (converted)): 20.9 µM
IC (TGI) (SF-295; SF-295, read-out: Log10 TGI (converted)): 56.2 µM
GI50 (SF-539; SF-539, read-out: Log10 GI50 (converted)): 15.5 µM
IC (TGI) (SF-539; SF-539, read-out: Log10 TGI (converted)): 36.3 µM
GI50 (SNB-19; SNB-19, read-out: Log10 GI50 (converted)): 33.9 µM
IC (TGI) (SNB-19; SNB-19, read-out: Log10 TGI (converted)): 87.1 µM
GI50 (SNB-75; SNB-75, read-out: Log10 GI50 (converted)): 25.7 µM
IC (TGI) (SNB-75; SNB-75, read-out: Log10 TGI (converted)): > 100 µM
GI50 (U251; U-251, U251, read-out: Log10 GI50 (converted)): 0.0832 µM
IC (TGI) (U251; U-251, U251, read-out: Log10 TGI (converted)): 20.9 µM
GI50 (LOX IMVI; [1]): 13.5 µM
IC (TGI) (LOX IMVI; [2]): 27.5 µM
GI50 (M14; M14, read-out: Log10 GI50 (converted)): 37.2 µM
IC (TGI) (M14; M14, read-out: Log10 TGI (converted)): > 100 µM
GI50 (SK-MEL-2; SK-MEL-2, read-out: Log10 GI50 (converted)): 39.8 µM
IC (TGI) (SK-MEL-2; SK-MEL-2, read-out: Log10 TGI (converted)): > 100 µM
GI50 (SK-MEL-28; SK-MEL-28, read-out: Log10 GI50 (converted)): > 100 µM
IC (TGI) (SK-MEL-28; SK-MEL-28, read-out: Log10 TGI (converted)): > 100 µM
GI50 (IGROV1; IGROV-1, IGROV1, read-out: Log10 GI50 (converted)): 0.0141 µM
IC (TGI) (IGROV1; IGROV-1, IGROV1, read-out: Log10 TGI (converted)): 0.174 µM
GI50 (OVCAR-4): 0.105 µM
GI50 (OVCAR-5): 0.0229 µM
GI50 (786-0; 786-0, read-out: Log10 GI50 (converted)): 6.46 µM
IC (TGI) (786-0; 786-0, read-out: Log10 TGI (converted)): 22.9 µM
GI50 (TK-10; TK-10, read-out: Log10 GI50 (converted)): < 0.01 µM
IC (TGI) (TK-10; TK-10, read-out: Log10 TGI (converted)): 0.0372 µM
GI50 (UO-31; UO-31, read-out: Log10 GI50 (converted)): > 100 µM
IC (TGI) (UO-31; UO-31, read-out: Log10 TGI (converted)): > 100 µM
GI50 (PC-3; PC-3, read-out: Log10 GI50 (converted)): 30.9 µM
IC (TGI) (PC-3; PC-3, read-out: Log10 TGI (converted)): > 100 µM
GI50 (MCF7/ADR-RES; [1]): 12.3 µM
IC (TGI) (MCF7/ADR-RES; [2]): > 100 µM
IC (TGI) (HS 578T): > 100 µM
GI50 (MDA-MB-435; MDA-MB-435, read-out: Log10 GI50 (converted)): > 100 µM
IC (TGI) (MDA-MB-435; MDA-MB-435, read-out: Log10 TGI (converted)): > 100 µM
GI50 (MDA-N; [1]): 97.7 µM
IC (TGI) (MDA-N; [2]): > 100 µM
GI50 (BT-549; BT-549, read-out: Log10 GI50 (converted)): > 100 µM
IC (TGI) (BT-549; BT-549, read-out: Log10 TGI (converted)): > 100 µM
GI50 (HOP-92; HOP-92, read-out: Log10 GI50 (converted)): 28.2 µM
IC (TGI) (HOP-92; HOP-92, read-out: Log10 TGI): > 100 µM
GI50 (NCI-H522; NCI-H522, read-out: Log10 GI50 (converted)): > 100 µM
IC (TGI) (NCI-H522; NCI-H522, read-out: Log10 TGI): > 100 µM
